Results reported in article PMC8784098 (Proceedings of the National Academy of Sciences of the …, 2022).

What was measured:
ASM [1] = target: T1, ASM (Homo sapiens, UniProt P17405); test: ASM activity in AD patient; assay type: cell-based; conditions: PS1 fibroblasts, 10 μM, 30 min
T1 sequence (P17405 47-631): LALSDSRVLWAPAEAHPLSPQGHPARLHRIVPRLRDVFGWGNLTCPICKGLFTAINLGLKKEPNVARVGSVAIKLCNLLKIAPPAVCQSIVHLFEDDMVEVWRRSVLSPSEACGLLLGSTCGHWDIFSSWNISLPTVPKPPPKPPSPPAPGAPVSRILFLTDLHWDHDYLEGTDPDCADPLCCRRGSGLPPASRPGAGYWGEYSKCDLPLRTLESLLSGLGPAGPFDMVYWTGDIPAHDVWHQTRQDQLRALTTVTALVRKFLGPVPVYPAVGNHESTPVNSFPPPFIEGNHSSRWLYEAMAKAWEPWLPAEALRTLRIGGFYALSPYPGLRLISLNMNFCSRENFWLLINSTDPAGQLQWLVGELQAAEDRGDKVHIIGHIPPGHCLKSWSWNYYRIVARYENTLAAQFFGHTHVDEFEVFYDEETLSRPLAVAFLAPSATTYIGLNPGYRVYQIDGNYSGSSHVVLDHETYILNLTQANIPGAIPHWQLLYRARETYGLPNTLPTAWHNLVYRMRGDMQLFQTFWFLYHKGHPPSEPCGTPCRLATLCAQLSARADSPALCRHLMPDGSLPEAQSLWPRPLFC

PS1 fibroblasts [2] = test: Ceramide production in PS1 fibroblasts; assay type: cell-based, human; conditions: 10 μM, 30 min
secretory ASM = target: T2, secretory ASM (Homo sapiens, UniProt P17405); test: Secretory ASM activity in PS1-derived supernatant medium; assay type: biochemical; conditions: P-sup, assay buffer with zinc, 10 μM, 1 h
T2 sequence (P17405 47-631): T1 sequence (P17405 47-631)

ASM [3] = target: T1, ASM; test: ASM activity after leupeptin preincubation in PS1 fibroblasts; assay type: cell-based; conditions: 25 µM leupeptin 24 h, then compound 30 min
PS1 fibroblasts [4] = test: Phospholipid accumulation by LipidTOX; assay type: cell-based, human; conditions: 10 μM, 24 h
APP/PS1 mice = assay type: in vivo, mouse; conditions: p.o., KARI 201 1, 5, or 10 mg⋅kg−1, AMI 100 mg⋅kg−1

CN(C)CCC=C1c2ccccc2CCc2ccccc21 [AMI, amitriptyline]
ASM activity in cell lysates (ASM [1]): efficiently inhibited | ceramide production (PS1 fibroblasts [2]): decreased | secretory ASM activity (secretory ASM): did not inhibit ASM activity | effect of leupeptin preincubation on ASM inhibition (ASM [3]): prevented ASM inhibition | accumulation of phospholipids (LipidTOX MFI) (PS1 fibroblasts [4]): induced accumulation of phospholipids | Survival (APP/PS1 mice): not affected | body weight (APP/PS1 mice): not affected
